Measurements taken from US11046647B2, “Activators of the unfolded protein response” (The Board of Trustees of the University of Illinois, priority 2018, dated 2021).

Assays:
MCF-7 cells = assay: Alamar Blue/raptinal 24-hour cell death assay, MCF-7; assay type: cell-based, human; conditions: 24-hour incubation, Alamar blue fluorescence
Procedure: FIG. 4. […] MCF7 (ERα) cells, 24 hour incubation, read out via Alamar Blue Fluorescence, Dead Control: Raptinal, n=3 (A, B). […] Orthotopic Mouse Xenograft breast cancers of TYS cells, Visualization by bioluminescent imaging. Treatment: 40 mg/kg daily (−)-105 for 3 days either by oral gavage or by intraperitoneal injection.
ALAMAR BLUE/RAPTINAL ASSAY: Live cells maintain a reducing environment. The non-fluorescent cell permeable ingredient of Alamar Blue® (resazurin) is taken up by cells. In living cells, it is reduced to the fluorescent compound resorufin. Using a standard curve of cell number versus fluorescence the number of live cells in a test sample can be determined. At high concentrations raptinal kills 100% of cells. The vehicle in which the test compound is dissolved is not toxic. Thus, after subtracting the blank for medium alone, the fluorescence reading for vehicle corresponds to 100% viable cells and the signal for raptinal corresponds to 0% viable cells. While this assay provides a less direct measurement of cell death than the trypan blue assay, it is more easily scaled up to large numbers of samples.
(§1) ALAMAR BLUE RAPTINAL ASSAYS: Cells were plated at 4,000-10,000 cells/well (96 well plate), usually in 50 μl of medium. After about 18 hours, an additional 50 μl of medium containing 2× the desired final concentration of the test compound (C-105) was added to each well. After 24 hours Alamar Blue reagent was added and fluorescence in the wells was read (BMG PheraStar or Molecular Devices Spectra Max M3 Microplate Reader). % relative death was determined by setting the reading for raptinal-treated cells to 100% dead cells and the reading for vehicle-treated cells to 0% dead cells.
Preparative gram-scale chiral separation of (±)-1 yields enantiopure (R)-1 and (S)-1 with opposite optical rotations (Scheme 5). […] Values were obtained after 24-hour incubation utilizing Alamar blue fluorescence assay normalized to live and death controls (vehicle and raptinal treated). (S)-1 IC50 is >1 μM. Error shown as S.E.M.

T47D cells = conditions: 100, 500 and 1,000 nM; 24 hours; n=1
Procedure: One such change is loss of plasma membrane polarity. This is monitored using Annexin V. Dying cells also take up the dye propidium iodide. Propidium iodide (PI) fluoresces when it is intercalated into DNA. These assays monitor cells at specific stages of cell death.
FLOW CYTOMETRY (FITC) ASSAYS: Cells were seeded in 12-well plates, 75,000 cells/well, and allowed to adhere overnight. The next day, the indicated concentrations of raptinal (positive control), (−)-105, (±)-105, and (+)-105 were added and allowed to incubate at 37° C. for 24 hours (Final Volume: 1 ml, 0.1% DMSO). After incubation, cells were harvested and resuspended in 350 μl of cold Annexin binding buffer (10 mM HEPES, 140 mM NaCl, 2.5 mM CaCl2, pH 7.4) premixed with Annexin V-FITC and PI dyes. Samples were analyzed on a BD Biosciences LSRII flow cytometer, and data analysis was performed using FSC Express Version 5-6. Cell death was assessed relative to a DMSO treated control.
T47D, human breast cancer cells were plated at 75,000 cells/well. The next day, DMSO vehicle, 10 μM raptinal (control for 100% cell death), or 0, 50, 100 500 and 1,000 nM of BHPI or (±)-105, or 1,000 nM ICI/fulvestrant or 1,000 nM OHT was added. After 24 hours viable cells were determined by FACS using annexin V-FITC and propidium iodide dyes. (n=3 independent experiments ±SEM).
75,000 ERα positive T47D, human breast cancer cells, were plated/well. The next day, DMSO vehicle, 10 μM raptinal (control for 100% cell death), or 100 500 and 1,000 nM of (+)-105, or (−)-105 was added. After 24 hours viable cells were determined by FACS using annexin V-FITC and propidium iodide dyes. (n=1).

TDG cells = assay: Trypan Blue exclusion cell death assay, TDG / TDG-Luc; assay type: cell-based, human; conditions: 24 hours; TDG-Luc
Text: (§2) TRYPAN BLUE: For decades, viable cells have been measured by their ability to exclude the dye Trypan Blue. […] Dead cells, which have lost membrane integrity, take up the dye and are blue. Thus, the percentage of dead cells is the percentage of cells that are Trypan Blue positive out of the total cell population. Quantitative assessment of Trypan Blue uptake uses a cell counter from Fisher. Since the assay is instrument based, there is no observer bias in determining the percentage of Trypan Blue positive cells.
(§3) TRYPAN BLUE ASSAYS: Assays are performed on cells in 6 well plates: 300,000 cells are plated in each well of a 6-well plate in 3 ml of medium. After 24 hours, the DMSO vehicle or the indicated compound is added (in 1000th of the vol.) The cells incubated for an additional 24 hours, and then harvested in 0.25 ml of trypsin, followed after harvest by 0.75 ml of medium. The cells are spun down and resuspended in 100-200 μl of medium left that is over the cell pellet (resuspend cells by pipetting up and down a few times). Add 10 μl to 10 μl of trypan blue. Then 10 μl is inserted into the counting slide. After inserting the slide into the Fisher TC20 counting is automatic (these many cells are needed because an accurate ratio of Trypan Blue positive to Trypan Blue negative cells requires about 200 cells in the field the instrument counts).
The Trypan Blue cell death assay was used to evaluate the ability of the active enantiomer of C-105 [(−)-105] to kill ERα positive TDG-Luc cells. For all studies, 300,000 TDG-Luc cells/well in 10% FBS were plated in a 6-well plate in triplicate. 24 hours after plating, the indicated concentrations the active enantiomer of (−)-105, or BHPI (top) ICI, or OHT (Lower left) or (+)-105 (lower right) were added. After 24 hours, the cells were harvested, and the % dead cells was determined by automated Trypan Blue exclusion using the Countess II automated hemocytometer. Percentage of viable cells was calculated by doing 100-(Cell Death %). (n=3±SEM).
TDG cells were incubated for 24 hours with 75 nM of BHPI or 75 nM of each of the indicated test compounds: 4, 6 and (±)-105 (enantiomers not separated). Cell death was determined using the instrument-based Trypan Blue exclusion assay. Structures are in the Synthesis section. […] (n=3±SEM).

[1] = system: MCF-7Y537S (MCF-7 ERαY537S-luciferase) cells; assay: Long-term cell culture experiment, MCF-7 ERαY537S-luciferase; assay type: cell-based, human; conditions: conditions as FIG. 15 (1 μM)
[2] = system: ERα positive and ERα negative cells; assay type: cell-based
Procedure: as §1
ERα positive MCF-7 breast cancer, Caov-3 ovarian cancer and ECC-1 uterine cancer cells and ERα negative MDA-MB-231 human breast cancer cells and HeLa, human cervical carcinoma cells and MCF-10A human mammary epithelial cells were plated at 10,000 cells/well (96 well plate) in 50 μl of medium. After about 18 hours, an additional 50 μl of medium containing 2× the desired final concentration of the test compound (C-105) was added to each well (final vol. 100 μl/well). After 24 hours Alamar Blue reagent was added and fluorescence in the wells was read after 1 hour (BMG PheraStar Microplate Reader). % relative death was determined by setting the reading for 10,000 nM raptinal-treated cells to 100% dead cells and the reading for vehicle-treated cells to 0% dead cells. (Data is the average ±SEM of 3 independent experiments with 5 biological replicates for each sample within each independent experiment.)
FIG. 3 compares the ability of (±)-105 to kill ERα positive and ERα negative cells. The dose response tests the ability of (±)-105 to rapidly kill ERα positive and ERα negative cells. […] After 24 hours Alamar Blue reagent was added and fluorescence in the wells was read. % relative death was determined by setting the reading for […] raptinal-treated cells to 100% dead cells and the reading for vehicle-treated cells to 0% dead cells. […]

[3] = system: TYS-Luc and TDG-Luc cells; assay: Xenograft studies using TYS-Luc and TDG-Luc cells (BHPI); assay type: in vivo, mouse; conditions: after 4 weeks
Text: In xenograft studies using TYS-Luc and TDG-Luc cells after 4 weeks the vehicle control breast tumors had roughly quadrupled in cells.

[4] = system: ERα positive breast cancer; assay: Mouse xenograft model of ERα positive breast cancer (BHPI); assay type: in vivo; conditions: reasonable doses
[5] = system: ERα Negative MCF-10A cells; assay: Trypan Blue exclusion cell death assay, MCF-10A; assay type: cell-based; conditions: 75 nM, 24 hours
Text: as §2, §3
In FIG. 28, neither the test compounds nor BHPI kill non-tumorigenic ERα Negative MCF-10A breast cells. ERα Negative MCF-10A cells were maintained for 24 hours in DMSO vehicle or 75 nM of BHPI or 75 nM of each of the indicated test compounds: 4, 6 and 105. Cell death was determined using the instrument-based Trypan Blue exclusion assay. (n=3±SEM).

[6] = system: CaOV-3 ovarian cancer cells; assay: Automated Trypan Blue exclusion cell death assay, Caov-3; assay type: cell-based, human; conditions: 24 hours
Procedure: FIG. 33. 105, but not BHPI, kills therapy-resistant ovarian CaOV-3 ovarian cancer cells. (±)-105; Cell death assay: Automated Trypan Blue exclusion. (24 hours post (±)-105)
as §2
as §3, with “After inserting the slide into the Fisher TC20 counting is automatic (these many cells are needed because an accurate ratio of Trypan Blue positive to Trypan Blue negative cells requires about 200 cells in the field the instrument counts).” left out

TYS-Luc cells = assay: Long-term cell culture experiment (treat 2 weeks, regrow 4 weeks), MTS, TYS-Luc; assay type: cell-based, human; conditions: 1 μM for 2 weeks, then 4 weeks without drug
Procedure: To simulate the effect of several weeks of treatment of a tumor in a mouse xenograft, long-term cell culture experiments were performed. TYS-Luc cells (T47DERαY537S-Luc cells; ERαY537S is the most lethal ERα mutation seen in metastatic breast cancer) were plated at 4,000 cells/well in 96 well plates. […] After 2 weeks (medium change every 2 days) cell number was determined using MTS and a standard curve of absorbance versus cell number for TYS-Luc cells. Notes: (i) Bars denote the BHPI and (−)-105 arms of the experiment. No drug is present during regrow. […] This allows any surviving cells to regrow. After 4 weeks the cells were assayed using MTS. […] (Note: Visual inspection of the wells confirmed that there were no cells in the well treated for 2 weeks with active (−)-105.) To test whether the cells that regrew after BHPI treatment were resistant to BHPI they were re-treated for another cycle (BHPI Retreat) and shown to retain sensitivity to BHPI killing. (n=8 biological replicates ±SEM.

parental T47D cells = assay: MTS growth assay, parental T47D cells; assay type: cell-based, human; conditions: 100 nM and 1 μM; 4 days
Procedure: (§4) ERα containing T47D human breast cancer cells able to survive in 1 μM BHPI were selected by clonal outgrowth. The effect of 100 nM and 1 μM BHPI and (−)-105 on growth of the (BHPI-sensitive) parental T47D cells and partially BHPI-resistant T47D clones 1,3,8, and 11 was evaluated. 4,000 cells/well were plated. Cell number was determined by MTS assay from a standard curve of absorbance versus cell number. […] Thus, in 4 days (−)-105 killed some, but not all, of the resistant cells.

[7] = system: partially BHPI-resistant T47D clones 1,3,8, and 11; assay: MTS growth assay, partially BHPI-resistant T47D clones; assay type: cell-based, human; conditions: 100 nM and 1 μM; 4 days
Procedure: as §4

T47D, TYS and TDG cells = assay: MTS proliferation assay (4 days), T47D, TYS and TDG; assay type: cell-based, human
Procedure: FIG. 30 compares the ability of BHPI and test compounds to inhibit proliferation of T47D, TYS and TDG cells. T47D cells were in medium containing 10 FBS (which contains estrogen), TYS-4 and TDG-1 cells were in medium containing 10% cd-FBS (estrogen depleted). Cells are plated at 2,000 cells/well in 96 well plates. After 24 hours in medium containing FBS or charcoal-dextran treated FBS (depleted of endogenous estrogens), the indicated concentration of each compound (in DMSO at 1/1000th of the volume of medium) was added. After 2 days the medium was changed, and the compounds were added again. After 2 additional days (4 days total) MTS assays are used to evaluate cell proliferation. (n=6 ±S.E.M.).

MCF-7 and TYS-Luc = assay: Trypan Blue cell death plus or minus 2-APB, MCF-7 and TYS-Luc; assay type: cell-based, human
Procedure: ERα positive MCF-7 and TYS-Luc were treated with DMSO vehicle (Veh), or BHPI or (−)-105 plus or minus 2-APB for the indicated times. Cells death was determined using the instrument-based Trypan Blue exclusion assay. […] This is consistent with (−)-105 inducing powerful lethal activation of the anticipatory UPR pathway. (n=3±SEM).

O=C1Nc2c(C(F)(F)F)cccc2C1(c1ccc(O)cc1)c1ccc(OC(F)(F)F)cc1 (single isomer, unassigned; (+)) [(+)-105, 3-(4-hydroxyphenyl)-3-(4-(trifluoromethoxy)phenyl)-7-(trifluoromethyl)indolin-2-one]
IC50 (MCF-7 cells; normalized to vehicle and raptinal, listed as (S)-1): > 1 µM
IC50 (MCF-7 cells; Homo sapiens, MCF7, 24 h): > 1 µM
activity of enantiomers (cell death) (T47D cells): inactive
killing of TDG-Luc cells, dose response (TDG cells): inactive and does not kill
eradication of cells in long-term experiment [1]: inactive
effect in ERα positive and ERα negative cell lines [2]: ineffective and not toxic

Cc1cccc2c1NC(=O)C2(c1ccc(O)cc1)c1ccc(O)cc1 [BHPI, reference compound]
tumor regression [3]: 97%-99.5%
tumor growth [4]: stopped tumor growth and induced rapid and substantial tumor regression
cell death of MCF-10A cells [5]: neither BHPI nor any of the test compounds induce significant death
killing of Caov-3 cells [6]: blocks growth of Caov-3 cells but does not kill them
regrowth of cells after drug removal (TYS-Luc cells): robust regrowth
effect on growth / cell number (parental T47D cells): blocked growth and killed many of the T47D cells
effect on growth / cell number [7]: inhibited growth but could not stop growth of the resistant clones
inhibition of proliferation (T47D, TYS and TDG cells): effectively inhibit proliferation
tumor growth / detectability (OVCAR-3 cells; OVCAR-3 orthotopic xenograft): strongly reduced tumor growth
tolerability in mice (OVCAR-3 cells; both xenograft studies): well tolerated

NCCOB(c1ccccc1)c1ccccc1 [Compound 2-APB]
block of (−)-105-induced cell death (MCF-7 and TYS-Luc; 45 and 60 min.): partially blocked
block of (−)-105-induced cell death (MCF-7 and TYS-Luc; 30 minutes): nearly completely blocked
